Structures can show the parent of a compound that is named as a salt.
How the values were obtained:
Solubility (qualitative) = type: physicochemical; conditions: for solubility in sodium hydroxide / alkaline solutions: aqueous sodium hydroxide or alkaline solutions; for solubility in hydrochloric acid: (diluted) hydrochloric acid
[1] = pH of the aqueous solution; type: physicochemical; conditions: dissolved in the previously-calculated amount of sodium hydroxide
male mice (strain CD) = experiment: Acute toxicity (LD50, Litchfield and Wilcoxon); type: in vivo; conditions: intraperitoneal, 8 days survey
From the text: The acute toxicity of these compounds has been determined on batches of male mice (strain CD) weighing about 20 g. They received the compounds to be tested at increasing doses either intraperitoneally or orally.
The animals are kept under survey for eight days. The deaths when present are numbered.
The average lethal dosage is graphically calculated according to the method of Litchfield and Wilcoxon.

Compound | solubility in sodium hydroxide / alkaline solutions (Solubility (qualitative)) | further results
CCC(OC(c1ccc(Cl)cc1)C(F)(F)F)C(=O)O (single isomer, unassigned) [Example IX (acid, isomer β), α-[2,2,2-trifluoro-1-(p-chlorophenylethoxy]butyric acid (isomer β)] | soluble in the previously-calculated amount of sodium hydroxide | 
CCC(OC(c1ccccc1)C(F)(F)F)C(=O)N1CCOCC1 (stereo not drawn) [Example VII, 4-[α-(2,2,2-trifluoro-1-phenylethoxy)butyryl]morpholine] |  | solubility in common organic solvents (Solubility (qualitative); common organic solvents): soluble in the common organic solvents; solubility in water (Solubility (qualitative)): insoluble in water
CCC(OC(c1ccccc1)C(F)(F)F)C(=O)O (stereo not drawn) [Example II, α-(2,2,2-trifluoro-1-phenyl-1-ethoxy)butyric acid] | soluble in the previously-calculated amount of sodium hydroxide in aqueous solution | 
CCC(OC(c1cccc2ccccc12)C(F)(F)F)C(=O)O (racemic) [XXI, Dl-2-[(naphtyl-1)-2,2,2-trifluoroethoxy]butyric acid] | soluble in the previously-calculated amount of sodium hydroxide | pH value of the aqueous solution [1]: 7-8
CCC(OC(c1ccc(N2CCCCCCC2)cc1)C(F)(F)F)C(=O)O (racemic) [XXV, dl-2-[[4-(heptamethyleneimino-1)phenyl-2,2,2-trifluoroethoxy)] butyric acid] | soluble in the aqueous solutions of sodium hydroxide | solubility in hydrochloric acid (Solubility (qualitative)): insoluble in hydrochloric acid
dl-2-[1-(p-chlorophenylethoxy)-2,2,2-trifluoroethoxy] butyric acid |  | mean lethal dose (LD50) (male mice (strain CD)): about 400 mg/kg
CCC(OC(c1ccc(OC)cc1)C(F)(F)F)C(=O)O (stereo not drawn) [Example V (4-methoxyphenyl), α-[2,2,2-trifluoro-1-(4-methoxyphenyl)ethoxy]butyric acid] | soluble in alkaline solutions | solubility in water (Solubility (qualitative)): insoluble in water
O=C(O)C(OC(c1ccccc1)C(F)(F)F)c1ccccc1 (racemic) [XVII, dl-2-(1-phenyl-2-trifluoroethoxy)phenyl acetic acid] | soluble in the dilute solutions of sodium hydroxide | 
CCC(OC(c1ccc(N2CCCCC2)cc1)C(F)(F)F)C(=O)O (racemic) [Example XIV hydrochloride, dl-2-[1-(4-piperidinophenyl)-2-trifluoroethoxy]butyric acid] |  | solubility in water (Solubility (qualitative)): freely soluble in water
CCC(OC(c1ccc2ccccc2c1)C(F)(F)F)C(=O)O (racemic) [XXII, dl-2-[1-(naphtyl-2)-2,2,2-trifluoroethoxy]butyric acid] | soluble in the previously-calculated amount of sodium hydroxide | 
CCC(OC(c1ccccc1)C(F)(F)F)C(=O)NO (stereo not drawn) [Example VI, α-(2,2,2-trifluoro-1-phenylethoxy)butyryl hydroxamic acid] | soluble in the previously-calculated amount of sodium hydroxide | 
CCC(OC(c1ccc(Oc2ccc(Cl)cc2)cc1)C(F)(F)F)C(=O)O (racemic) [XII, dl-2-[1-(4-chlorophenoxyphenyl)-2,2,2-trifluoroethoxy]butyric acid] | soluble in dilute sodium hydroxide solutions | 
CCC(OC(c1ccc(N2CCCCCC2)cc1)C(F)(F)F)C(=O)O (racemic) [XXIV, dl-2-[[4-(1-hexamethyleneimino)phenyl]-2,2,2-trifluoroethoxy] butyric acid] | soluble in the dilute aqueous solutions of sodium hydroxide | solubility in hydrochloric acid (Solubility (qualitative)): insoluble in diluted hydrochloric acid
CCC(OC(c1ccccc1)C(F)(F)F)C(=O)N1CCCCC1 (stereo not drawn) [VIII, 1-[α-(2,2,2-trifluoro-1-phenylethoxy)butyryl]piperidine] |  | solubility in water (Solubility (qualitative)): insoluble in water
CC(OC(c1ccccc1)C(F)(F)F)C(=O)O (racemic) [IV, dl-α-(2,2,2-trifluoro-1-phenylethoxy)propionic acid] | dissolves in the stoichiometric amount of sodium hydroxide | 
CCC(OC(c1ccc(N2CCOCC2)cc1)C(F)(F)F)C(=O)O (racemic) [Example XV hydrochloride, dl-2-[1-(4-morpholinophenyl)-2-trifluoroethoxy]butyric acid] |  | solubility in water (Solubility (qualitative)): soluble in water
CCC(OC(c1cccs1)C(F)(F)F)C(=O)O (racemic) [XVIII, dl-2-[1-(thienyl-2)-2,2,2-trifluoroethoxy]butyric acid] | soluble in dilute solutions of sodium hydroxide | 
CCC(OC(c1ccc(Cl)cc1)C(F)(F)F)C(=O)O (stereo not drawn) [Example V (1), α-[2,2,2-trifluoro-1-(4-chlorophenyl)ethoxy]butyric acid] | soluble in an aqueous solution of sodium hydroxide | 

Source: US4288453A, “Derivatives of arylalkanoic acids, compositions and use” (Science Union et Cie, priority 1977, dated 1981)
